Laboratory results reported in patent US9296760B2, “Antibacterial compounds” (JANSSEN SCIENCES IRELAND UC, priority 2012, dated 2016).
Converted amounts (≈) assume the structure as drawn.

Assays:
[1] = target: T1, S. aureus ATCC 29213 FabI (Staphylococcus aureus, UniProt Q6GI75); assay: Staphylococcus aureus FabI enzyme inhibition assay; format: biochemical; settings: NADH consumption, 30 minutes, read-out: FabI (300.235) IC50 (converted)
T1 sequence (Q6GI75 1-256): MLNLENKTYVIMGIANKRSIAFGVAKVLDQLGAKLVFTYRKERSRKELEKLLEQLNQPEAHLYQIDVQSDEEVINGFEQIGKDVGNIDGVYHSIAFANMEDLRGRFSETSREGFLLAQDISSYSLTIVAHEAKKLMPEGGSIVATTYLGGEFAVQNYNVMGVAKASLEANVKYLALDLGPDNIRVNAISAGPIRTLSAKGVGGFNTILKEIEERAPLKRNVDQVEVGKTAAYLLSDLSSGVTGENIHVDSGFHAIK
Method: Y.1 FabI Enzyme Inhibition: Staphylococcus aureus FabI Enzyme Inhibition Assay
FabI enzyme inhibition assays were carried out in half-area, 384-well microtitre plates. […] The reaction mixtures were incubated for 30 minutes at room temperature and the reaction was stopped by adding 200 mM Tris buffer (pH 9.0) to create a pH-shift. The consumption of NADH was monitored by measuring the change in absorbance at […]. By comparing sample readings to those of negative (absence of compound) and positive (absence of enzyme) controls, the percent inhibition of enzymatic activity of the compounds was determined A best-fit curve is fitted by a minimum of squares method. From this an IC50-value (expressed in μg/ml), resulting in 50% inhibition of enzymatic activity, was obtained.

S. aureus = assay: Antibacterial susceptibility testing, IC90 determination with 10% human serum; format: cell-based, Staphylococcus aureus; settings: S. aureus with human serum at final concentration of 10%; for IC90: Staphylococcus aureus, read-out: STA + 10% HS (361.169) IC90
Method: (§1) Antibacterial Susceptibility Testing: IC90 Determination MIC assays were performed by the broth microdilution method in a 96-well format (flat-bottom microtitre plates) with a final volume of 0.1 ml Mueller Hinton broth containing two-fold serial dilutions of compounds and inoculated with 5×10^5 CFU/ml of bacteria (standard inoculum size according to CLSI guidelines). Inhibitors are typically varied over the range of 63 to 0.49 μM. The final DMSO concentration in the assay was 1.25% (maximum tolerable DMSO concentration=6%). In the assays where the effect of human serum on the activity of the compounds against S. aureus was tested, human serum was added at a final concentration of 10%. The plates were incubated at 35° C. for 16-20 hours. At the end of incubation the bacterial growth was quantified fluorometrically. For this, resazurin was added to all wells and the plates were re-incubated. The incubation time is dependent on the type of bacteria. A change in color from blue to pink indicated the growth of bacteria. The fluorescence was read in computer-controlled fluorometer (Fluoroskan Ascent FL, Labsystems) at an excitation wavelength 540 nm and an emission wavelength of 590 nm. The % growth inhibition achieved by the compounds was calculated according to standard methods. The IC90 (expressed in μg/ml) was defined as the 90% inhibitory concentration for bacterial growth. A panel of reference compounds were simultaneously tested for QC approval. The results are depicted in the table(s) below (STA+10% HS).

Human HelaM cells = assay: Cytotoxicity MTT assay; format: cell-based; settings: 72 hours
Method: (§2) Cytotoxicity of the compounds was evaluated using the MTT assay. Human HelaM cells grown in 96-well plates were exposed to serial dilutions of the tested compounds (final volume of 0.2 ml) and incubated for 72 hours at 37° C. and 5% CO2 Inhibitors are typically varied over the range of 25 to 0.8 μM. The final DMSO concentration in the assay is 0.5%. MTT (3-(4,5-Dimethylthiazol-2-yl)-2,5-diphenyltetrazolium bromide, a tetrazole) was added and reduced to purple formazan only in living cells. Solubilization of the formazan crystals was achieved by adding 100 μl 2-propanol. Cell viability was determined by measuring the absorbance of the reduced formazan, giving a purple color, at 540 nm and 690 nm. The absorbance measured at 690 nm was automatically subtracted from the absorbance at 540 nm, to eliminate the effects of non-specific absorption. The percent cytotoxicity achieved by the compounds was calculated according to standard methods. Cytotoxicity is reported as CC50, the concentration that causes a 50% reduction in cell viability.
(§3) The results are depicted in the table(s) below (HELAM).

[2] = system: Staphylococcus aureus ATCC 29213; assay: Antibacterial susceptibility testing, IC90 determination (broth microdilution, resazurin); format: cell-based; settings: 90% inhibitory concentration for bacterial growth; for STA (361.159) IC90: S. aureus ATCC 29213; for IC90: Staphylococcus aureus, ATCC29213, S. aureus ATCC 29213, read-out: STA (361.159) IC90
Method: Y.2 In Vitro Method for Testing Compounds for Antibacterial Activity Against Various Bacterial Strains
Preparation of Bacterial Suspensions for Susceptibility Testing
The following bacteria were used: Staphylococcus aureus ATCC 29213, methicillin-resistant Staphylococcus aureus (MRSA) ATCC 700788 and Escherichia coli ATCC 35218. The bacteria used in this study were grown overnight in flasks containing 100 ml Mueller-Hinton broth (Difco cat. nr. 0757-17) in sterile de-ionized water, with shaking, at 37° C. Stocks were store at −70° C. until use.
Bacteria were incubated on a tryptic soy agar plate containing 5% sheep blood (Becton Dickinson cat. nr. 254053) for 18-24 hours at 35° C. in aerobic conditions (first passage). For the second passage, fresh Mueller-Hinton broth is inoculated with 5-10 colonies and grown overnight at 35° C. until turbidity (reaching log-phase) in aerobic conditions is reached. The bacterial suspension is then adjusted to 0.5 McFarland density and further diluted 1:100 in Mueller Hinton broth medium. This is used as inoculum.
The result(s) are depicted the table below (for STA ATCC 29213).
Antibacterial Susceptibility Testing: IC90 Determination
as §1, with “MIC” for “Antibacterial Susceptibility Testing: IC90 Determination MIC”, “approval.” for “approval. The results are depicted in the table(s) below (STA+10% HS).”

Cytotoxicity MTT assay = format: cell-based, Human; settings: human, HelaM cells, read-out: HELAM (222.125) CC50
Method: as §2, §3

SMILES | IC50 [1] | STA + 10% HS (361.169) IC90 (S. aureus) | HELAM (222.125) CC50 (Human HelaM cells) | STA (361.159) IC90 [2] | IC90 (S. aureus) | melting point | IC90 [2] | CC50 at 72 h (Cytotoxicity MTT assay)
O=C1CNCc2cc(/C=C/C(=O)N3CCC=C(c4ccccc4)CC3)cnc2N1 [compound 36] | 747 nM | 0.45 µg/mL | >19.47 µg/mL | 0.46 µg/mL |  |  |  | 
CN1CC(=O)Nc2ncc(/C=C/C(=O)N3CCC=C(c4ccccc4)CC3)cc2C1 [compound 38] | 820 nM |  | >10.11 µg/mL |  | 0.46 µg/mL | 198.79 °C | 0.5 µg/mL (≈ 1.24 µM) | 
CN1CC(=O)Nc2ncc(/C=C/C(=O)N3CCC=C(c4ccccc4)CC3)cc2C1 [compound 40] | 721 nM | 0.60 µg/mL | 24.25 µg/mL | 0.53 µg/mL |  |  |  | 
O=C1Nc2ncc(/C=C/C(=O)N3CCC=C(c4ccccc4)CC3)cc2CN2CCNCC12 (stereo not drawn) [compound 52] | 21400 nM |  |  |  | 4.75 µg/mL | 206 °C | 6.56 µg/mL (≈ 14.8 µM) | > 11.1 µg/mL
